Results as given in patent US8937067B2, “Activators of human pyruvate kinase” (The United States of America, as represented by the …, priority 2008, dated 2015).
“And” between values parts separate entries of the source, which are not always exact repeats. Equal values may be shown once.

Legend:
hPK-M2 [1] = target: T1, hPK-M2 (Homo sapiens, UniProt P14618); assay: Fluorescent pyruvate kinase-lactate dehydrogenase (LDH) coupled secondary assay; format: biochemical; conditions: for Emax: read-out: maximum response, LDH assay; for LDH hPK, M2 Max. Res.: % activation at 57 μM of compound
Description: Fluorescent Pyruvate Kinase-Lactate Dehydrogenase Coupled Secondary Assay.
Plates were immediately placed in ViewLux (Perkin Elmer) and NADH fluorescence was determined at 30 second exposure intervals for between 3 and 6 minutes. Data were normalized to the uninhibited and EC100 activation using known activators such as fructose-1,6-bis-phosphate. […] Data was collected on the Perkin Elmer Viewlux.

hPK-M2 [2] = target: T1, hPK-M2; assay: Luminescent pyruvate kinase-luciferase coupled assay (KinaseGlo); format: biochemical; conditions: for activation at 57 µM / hPK, M2 Max. Res.: KinaseGlo, % activation at 57 μM of compound; for activation at 57 µM: read-out: hPK, M2 Max. Res.; for Emax: read-out: maximum response
Description: Luminescent Pyruvate Kinase-Luciferase Coupled Assay.
Production of a luminescent signal based on the generation of ATP by pyruvate kinase was determined by using the ATP-dependent enzyme firefly luciferase. Three μL of substrate mix (at r.t.) in assay buffer (50 mM imidazole pH 7.2, 50 mM KCl, 7 mM MgCl2, 0.01% tween 20, 0.05% BSA) was dispensed into Kalypsys white solid bottom 1,536 well microtiter plates using a bottle-valve solenoid-based dispenser (Kalypsys). The final concentrations of substrates in the assay were 0.1 mM ADP and 0.5 mM PEP. […] Microtiter plates were incubated at r.t. for 1 hour and 2 uL of luciferase detection mix (Kinase-Glo, Promega at 4° C. protected from light) was added and luminescence was read with a ViewLux (Perkin Elmer) using a 5 second exposure/plate. Data was normalized for AC50 values to control columns containing uninhibited enzyme (n), and AC100 inhibition (i) according the following equation: Activation (%)=[(c−n)/(n−i)]*100 where c=compound, n=DMSO neutral, i=no enzyme control. […] Monitoring of activation was accomplished using enzyme at 3× the final concentration.

[3] = luminescent pyruvate kinase-luciferase coupled assay (KinaseGlo), tables, read-out: hPK, M2 AC50
[4] = tables, read-out: LDH hPK, M2 AC50
[5] = luciferase-coupled assay, relative to activation by FBP
[6] = luciferase-coupled assay, read-out: AC50

T1 sequence (P14618 whole entry): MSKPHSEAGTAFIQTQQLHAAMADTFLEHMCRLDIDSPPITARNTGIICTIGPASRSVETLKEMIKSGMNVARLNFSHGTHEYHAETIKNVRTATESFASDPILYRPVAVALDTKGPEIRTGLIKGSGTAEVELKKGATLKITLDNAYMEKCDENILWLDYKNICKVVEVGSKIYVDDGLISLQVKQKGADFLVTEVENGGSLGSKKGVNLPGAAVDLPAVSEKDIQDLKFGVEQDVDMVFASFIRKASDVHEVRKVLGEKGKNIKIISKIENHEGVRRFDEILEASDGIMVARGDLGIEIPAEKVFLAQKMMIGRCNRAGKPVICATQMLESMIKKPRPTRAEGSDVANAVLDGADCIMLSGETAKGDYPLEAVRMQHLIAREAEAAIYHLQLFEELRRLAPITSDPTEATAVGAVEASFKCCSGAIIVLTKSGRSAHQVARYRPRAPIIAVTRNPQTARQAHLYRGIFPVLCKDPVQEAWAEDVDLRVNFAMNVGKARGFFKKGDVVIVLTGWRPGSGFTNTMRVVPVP

| Compound | AC50 (hPK-M2 [1]; read-out: AC50, LDH assay) [µM] | Emax (hPK-M2 [1]) [%] | activation at 57 µM (hPK-M2 [2]) [%] | AC50 (hPK-M2 [2]; [3]) [µM] | LDH hPK, M2 Max. Res. (hPK-M2 [1]) [%] | AC50 (hPK-M2 [1]; [4]) [µM] | Emax (hPK-M2 [2]; [5]) [%] | hPK, M2 Max. Res. (hPK-M2 [2]) [%] | AC50 (hPK-M2 [2]; [6]) [µM] | maximum response (hPK-M2 [2]; [5]) |
| --- | --- | --- | --- | --- | --- | --- | --- | --- | --- | --- |
| Cn1c2cc(CO)sc2c2cnn(Cc3ccccc3F)c(=O)c21 [Compound 85, 2-Hydroxylmethyl-4-methyl-6-[(2-fluorophenyl)methyl]-4H-thieno[3,2-b]pyrrole[3,2-d]pyridazinone] | 0.22 ± 0.03 | 155 | 103 ± 7.2 | 0.048 ± 0.01 |  |  |  |  |  |  |
| Cc1cc2c(s1)c1cnn(Cc3ccc(F)cc3F)c(=O)c1n2C [Compound 112, 2,4-Methyl-6-[(2,4-difluorophenyl)methyl]-4H-thieno[3,2-b]pyrrole[3,2-d]pyridazinone] | 0.17 ± 0.03 | 217 |  | 0.044 ± 0.01 |  |  |  |  |  |  |
| COc1cc(F)c(S(=O)(=O)N2CCCN(S(=O)(=O)c3ccc4c(c3)OCCO4)CC2)c(F)c1 [Compound 128] |  |  | 96.7 | 0.0366 | 159.85 | 0.058 |  |  |  |  |
| CC(=O)c1cc2c(s1)c1cnn(Cc3ccccc3F)c(=O)c1n2C [Compound 87, 2-Acetyl-4-methyl-6-[(2-fluorophenyl)methyl]-4H-thieno[3,2-b]pyrrole[3,2-d]pyridazinone] | 0.15 ± 0.03 | 200 | 108 ± 4.9 | 0.011 |  |  |  |  |  |  |
| CC(C)c1cc2c(s1)c1cnn(Cc3ccccc3F)c(=O)c1n2C [Compound 69, 2-Isopropyl-4-methyl-6-[(2-fluorophenyl)methyl]-4H-thieno[3,2-b]pyrrole[3,2-d]pyridazinone] | 1.8 | 302 | 106 ± 6.2 | 0.142 ± 0.02 |  |  | 100 |  |  |  |
| O=S(=O)(c1cccc(O)c1)N1CCN(S(=O)(=O)c2c(F)cccc2F)CC1 [Compound 140] |  |  |  | 0.183 | 148.41 | 0.183 |  | 89.61 |  |  |
| O=S(=O)(N[C@H]1CC[C@@H](NS(=O)(=O)c2c(F)cccc2F)CC1)c1ccc2c(c1)OCCO2 [Compound 38, N-((cis)-4-(2,6-difluorophenylsulfonamido)cyclohexyl)-2,3-dihydrobenzo[b][1,4]dioxine-6-sulfonamide] | 7 ± 1.5 | 56 ± 11 | 60.7 ± 5.6 | > 35 |  |  |  |  | 37.1 ± 5 |  |
| O=S(=O)(c1c(F)cccc1F)N1CCN(S(=O)(=O)c2c(F)cccc2F)CC1 [Compound 22, 1,4-bis(2,6-difluorophenylsulfonyl)piperazine] | 0.172 ± 0.029 | 85 ± 8 | 74.3 ± 9.8 | 0.066 |  |  |  |  |  |  |
| Nc1cccc(S(=O)(=O)N2CCN(S(=O)(=O)c3ccc4c(c3)OCCO4)CC2)c1 [Compound 135] |  |  |  | 0.0411 | 98.13 | 0.146 |  | 82.08 |  |  |
| Cc1ccc(N[S+](=O)([O-])c2ccc3c(c2)CCC(=O)N3)cc1C [Compound 150] |  |  | 84 | 0.163 | 153.98 | 0.146 |  |  |  |  |
| CC(=O)Nc1ccc(S(=O)(=O)N2CCCN(S(=O)(=O)c3ccc4c(c3)OCCO4)CC2)cc1 [Compound 132] |  |  | 81.1 | 4.11 | 123.97 | 2.59 |  |  |  |  |
| Nc1cccc(S(=O)(=O)N2CCN(S(=O)(=O)c3c(F)cccc3F)CC2)c1 [Compound 137] |  |  |  | 0.0919 | 154.42 | 0.206 |  | 81.51 |  |  |
| Nc1ccc(S(=O)(=O)N2CCN(S(=O)(=O)c3ccc4c(c3)OCCO4)CC2)cc1 [Compound 151] |  |  |  | 0.411 | 174.46 | 0.366 |  | 91.84 |  |  |
| COc1cc(F)c(S(=O)(=O)N2CCCN(S(=O)(=O)c3cccc(N)c3)CC2)c(F)c1 [Compound 141] |  |  |  | 0.206 | 157.96 | 0.146 |  | 93.20 |  |  |
| COc1cc(F)c(S(=O)(=O)N2CCN(S(=O)(=O)c3ccco3)CC2)c(F)c1 [Compound 145] |  |  |  | 0.183 | 106.13 | 0.116 |  | 82.49 |  |  |
| Cn1c2cc([S+](C)[O-])sc2c2cnn(Cc3ccccc3F)c(=O)c21 (stereo not drawn) [Compound 73, 2-Methylsulfinyl-4-methyl-6-[(2-fluorophenyl)methyl]-4H-thieno[3,2-b]pyrrole[3,2-d]pyridazinone] | 0.19 ± 0.01 | 211 | 97.9 ± 3.1 | 0.025 ± 0.01 |  |  |  |  |  |  |

| Compound | AC50 (hPK-M2 [1]; read-out: AC50, LDH assay) [µM] | Emax (hPK-M2 [1]) [%] | activation at 57 µM (hPK-M2 [2]) [%] | AC50 (hPK-M2 [2]; [3]) [µM] | LDH hPK, M2 Max. Res. (hPK-M2 [1]) [%] | AC50 (hPK-M2 [1]; [4]) [µM] | Emax (hPK-M2 [2]; [5]) [%] | hPK, M2 Max. Res. (hPK-M2 [2]) [%] | AC50 (hPK-M2 [2]; [6]) [µM] | maximum response (hPK-M2 [2]; [5]) |
| --- | --- | --- | --- | --- | --- | --- | --- | --- | --- | --- |
| O=C1CN(S(=O)(=O)c2ccc3c(c2)OCCO3)CCN1S(=O)(=O)c1c(F)cccc1F [Compound 50, 1-(2,6-difluorophenylsulfonyl)-4-(2,3-dihydrobenzo[b][1,4]dioxin-6-ylsulfonyl)piperazin-2-one] | 3.16 | 82 | 96.9 ± 5.6 | 2.42 ± 0.16 |  |  |  |  |  |  |
| COc1ccc(S(=O)(=O)N2CCN(S(=O)(=O)c3ccc4c(c3)OCCO4)CC2)cc1 [Compound 1, 1-(2,3-dihydrobenzo[b][1,4]dioxin-6-ylsulfonyl)-4-(4-methoxyphenylsulfonyl)piperazine] | 0.3 ± 0.1 | 224 | 92.2 ± 12 | 0.111 |  |  |  |  | 0.063 ± 0.02 | 122.1% and 92.2% |
| COc1cc(F)c(S(=O)(=O)N2CCN(S(=O)(=O)c3cccc(N)c3)CC2)c(F)c1 [Compound 134] |  |  |  | 0.0231 | 141.67 | 0.073 |  | 87.00 |  |  |
| COc1cc(F)c(S(=O)(=O)N2CCCN(S(=O)(=O)c3cccc(NC(C)=O)c3)CC2)c(F)c1 [Compound 126] |  |  | 83.8 | 2.91 | 114.61 | 2.91 |  |  |  |  |
| COc1ccc(Cn2ncc3c4sc(C)cc4n(C)c3c2=O)cc1 [Compound 111, 2,4-Methyl-6-[(4-methoxyphenyl)methyl]-4H-thieno[3,2-b]pyrrole[3,2-d]pyridazinone] | 0.23 ± 0.04 | 258 | 96.2 ± 2.5 | 0.037 ± 0.01 |  |  |  |  |  |  |
| CC(=O)Nc1cccc(S(=O)(=O)N2CCCN(S(=O)(=O)c3ccc4c(c3)OCCO4)CC2)c1 [Compound 131] |  |  |  | 0.819 | 123.67 | 0.819 |  | 91.11 |  |  |
| Nc1ccc(S(=O)(=O)N2CCCN(S(=O)(=O)c3ccc4c(c3)OCCO4)CC2)cc1 [Compound 125] |  |  | 86.6 | 0.103 | 131.59 | 0.163 |  |  |  |  |
| COc1cc(F)c(S(=O)(=O)N2CCN(S(=O)(=O)c3ccc(N)cc3)CC2)c(F)c1 [Compound 139] |  |  |  | 0.13 | 166.00 | 0.183 |  | 92.46 |  |  |
| Cc1cc2c(s1)c1cnn(Cc3ccc(C(F)(F)F)cc3F)c(=O)c1n2C [Compound 120, 2,4-Methyl-6-[(2-fluoro-4-trifluoromethylphenyl)methyl]-4H-thieno[3,2-b]pyrrole[3,2-d]pyridazinone] |  | < 80 | 59.3 ± 18 |  |  |  | < 80 |  |  |  |
| O=S(=O)(N[C@H]1CC[C@H](NS(=O)(=O)c2c(F)cccc2F)CC1)c1ccc2c(c1)OCCO2 [Compound 37, N-((trans)-4-(2,6-difluorophenylsulfonamido)cyclohexyl)-2,3-dihydrobenzo[b][1,4]dioxine-6-sulfonamide] | 7 ± 1.5 | 56 ± 11 | 90.8 ± 12.4 |  |  |  |  |  | 2.11 ± 0.64 |  |
| COc1cc(F)c(S(=O)(=O)N2CCN(S(=O)(=O)c3cccc(NC(C)=O)c3)CC2)c(F)c1 [Compound 133] |  |  |  | 1.63 | 94.88 | 1.03 |  | 60.00 |  |  |
| Cn1ccc2cc(S(=O)(=O)N3CCN(S(=O)(=O)c4c(F)cccc4F)CC3)ccc21 [Compound 28, 5-(4-(2,6-difluorophenylsulfonyl)piperazin-1-ylsulfonyl)-1-methyl-1H-indole] |  |  | 91.1 ± 4.7 | 0.387 |  |  |  |  |  |  |
| CC1(C)CCc2cc(S(=O)(=O)N3CCN(S(=O)(=O)c4c(F)cccc4F)CC3)ccc2O1 [Compound 27, 1-(2,6-difluorophenylsulfonyl)-4-(2,2-dimethylchroman-6-ylsulfonyl)piperazine] |  |  | 119 ± 5.4 | 0.093 |  |  |  |  |  |  |
| Cc1cc2[nH]c3c(=O)n(Cc4ccccc4F)ncc3c2s1 [Compound 89, 2-Methyl-6-[(2-fluorophenyl)methyl]-4H-thieno[3,2-b]pyrrole[3,2-d]pyridazinone] |  |  | 32.9 ± 3.8 |  |  |  |  |  |  |  |
| CN1CCOc2ccc(S(=O)(=O)N3CCN(S(=O)(=O)c4c(F)cccc4F)CC3)cc21 [Compound 25, 6-(4-(2,6-difluorophenylsulfonyl)piperazin-1-ylsulfonyl)-4-methyl-3,4-dihydro-2H-benzo[b][1,4]oxazine] |  |  |  | 2.71 |  |  |  | 93.5 ± 5.9 |  |  |
